Reference: patent publication US20130225524A1, “Chemical Compounds” (priority 2010, published 2013)
Where a name gives a salt, the structure may show the parent alone.

Molecular target: lactate dehydrogenase A (LDH-A) (Homo sapiens, UniProt P00338)
Assay: biochemical
Protocol: Assay buffer (50 mM potassium phosphate, pH 7.0, 50 mM NaCl, 0.25 mM CHAPS, 0.0025% BSA) is added to one column of a standard assay plate stamped with DMSO solutions of test compounds. A solution of LDH-A and NAD+ (final concentrations: 300 pM LDH-A and 150 uM NAD+) in assay buffer is added to remaining plate wells containing DMSO solutions of test compounds and DMSO only control wells and the mixtures incubated for 10 min at room temperature. A solution of lactate, resazurin, diaphorase (final concentrations: 2 mM lactate, 6.25 uM resazurin, 0.4 U/mL diaphorase) in assay buffer is added to all wells and the mixtures incubated for 30 min at room temperature. Stop solution (2 uL, components: assay buffer and 25 mM oxamate) is added to each well and the fluoresecence intensity increase (FLINT) measured at 590 nm on a ViewLux®imager.

## COc1ncc(-c2ccc3c(Nc4cc(C(=O)O)cc(C(C)C(C)C)c4)c(C(N)=O)cnc3c2)c(OC)n1 (stereo not shown) [Example 60, 3-({3-(aminocarbonyl)-7-[2,4-bis(methyloxy)-5-pyrimidinyl]-4-quinolinyl}amino)-5-(1,2-dimethylpropyl)benzoic acid, acetate salt]
  IC50: 63.1 nM
